This note sets out measurements from patent US20260092074A1, “Annelated Pyridines as Steroidogenesis Inhibitors, Preparation Method and Use Thereof” (Guangzhou Vinnocent Pharmaceutical Limited, priority 2022, published 2026).

The target of one assay is T1, human CYP11B1 (Homo sapiens, UniProt P15538).
T1 construct: expressed in transfected cells
T1 sequence (P15538 25-503): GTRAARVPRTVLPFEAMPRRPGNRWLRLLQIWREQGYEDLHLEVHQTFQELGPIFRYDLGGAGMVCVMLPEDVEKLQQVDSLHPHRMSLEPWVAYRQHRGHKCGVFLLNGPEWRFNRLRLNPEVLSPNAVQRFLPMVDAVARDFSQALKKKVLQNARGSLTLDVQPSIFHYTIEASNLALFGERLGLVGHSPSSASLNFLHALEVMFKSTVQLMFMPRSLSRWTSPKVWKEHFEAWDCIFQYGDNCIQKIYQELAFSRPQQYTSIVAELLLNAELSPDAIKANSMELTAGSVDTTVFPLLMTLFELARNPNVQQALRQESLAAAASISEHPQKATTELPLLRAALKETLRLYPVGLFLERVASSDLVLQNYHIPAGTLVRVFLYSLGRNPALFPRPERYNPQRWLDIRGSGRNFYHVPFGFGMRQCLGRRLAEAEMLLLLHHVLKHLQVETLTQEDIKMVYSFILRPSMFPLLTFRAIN
Nature of the assay: Inhibition of hCYP11B1 in transfected V79 cells. It counts as cell-based. The note with it: hamster V79 cells expressing human CYP11B1; substrate 11-deoxycortisol 200 nM. The method, then:
(§1) Genes of human CYP11B1 and rat NADPH-P450 reductase were transfected into hamster V79 cells using a lentivirus vector, and stably-expressing cell lines were selected by taking advantages of the associated puromycin-resistance gene. Cultured cells were diluted and seeded in a 96-well plate with an amount of approximately 10,000 per well. After pre-incubation with suitable concentrations of the test compounds for 2 hours, 11-deoxycortisol of 200 nM was added as the substrate to initiate the catalytic reaction. After further incubation for 30 minutes, it was quenched with ethyl acetate. Subsequently, the substrate and product(s) were quantified using LC-MS/MS or HPLC at 260 nm, and the IC50 values were calculated according to inhibitory percentage.

The target of the next assay is T2, human CYP11B2 (Homo sapiens, UniProt P19099).
T2 construct: expressed in transfected cells
T2 sequence (P19099 25-503): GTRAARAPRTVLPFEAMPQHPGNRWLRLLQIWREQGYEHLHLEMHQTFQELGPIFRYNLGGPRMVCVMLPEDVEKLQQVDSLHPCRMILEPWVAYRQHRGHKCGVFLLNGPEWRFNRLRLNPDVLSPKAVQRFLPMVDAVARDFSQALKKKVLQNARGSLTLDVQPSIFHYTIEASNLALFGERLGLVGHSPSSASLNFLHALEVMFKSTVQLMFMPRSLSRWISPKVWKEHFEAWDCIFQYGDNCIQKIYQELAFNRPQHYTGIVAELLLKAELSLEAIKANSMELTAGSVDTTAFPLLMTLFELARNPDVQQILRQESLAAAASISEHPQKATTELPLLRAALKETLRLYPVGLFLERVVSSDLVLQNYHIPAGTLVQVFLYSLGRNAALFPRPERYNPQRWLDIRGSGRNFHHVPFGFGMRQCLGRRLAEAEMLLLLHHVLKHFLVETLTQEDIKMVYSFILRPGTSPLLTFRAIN
As to the kind of experiment: Inhibition of hCYP11B2 in transfected V79 cells. The note with it: hamster V79 cells expressing human CYP11B2; substrate 11-deoxycorticosterone 200 nM. Format: cell-based. The method, then:
as §1, with “CYP11B2” for “CYP11B1”, “11-deoxycorticosterone” for “11-deoxycortisol”

Structures are written as SMILES.

By IC50 is commonly meant the concentration that inhibits the measured activity by half. Lower therefore signals greater potency. As for `N#Cc1cccc(-c2cncc3c2CCN3C(=O)c2ccccc2F)c1` [C55, 3-(1-(2-Fluorobenzoyl)-2,3-dihydro-1H-pyrrolo[2,3-c]pyridin-4-yl)benzonitrile], the IC50 against human CYP11B1 turned out to be 973 nM; against human CYP11B2 it was 29 nM.

For `O=C(c1ccccc1F)N1CCc2c(-c3ccoc3)cncc21` [C56, (2-Fluorophenyl)(4-(furan-3-yl)-2,3-dihydro-1H-pyrrolo[2,3-c]pyridin-1-yl)methanone], the 50% inhibitory concentration (IC50) at human CYP11B1 was 522 nM; against human CYP11B2, 103 nM.

As to `O=C(c1ccccc1F)N1CCc2c(-c3ccc4nccn4c3)cncc21` [C57, (2-Fluorophenyl)(4-(imidazo[1,2-a]pyridin-6-yl)-2,3-dihydro-1H-pyrrolo[2,3-c]pyridin-1-yl)methanone], the IC50 against human CYP11B1 came out at 876 nM; against human CYP11B2, 27 nM.

For the compound `O=C(c1ccccc1F)N1CCc2c(-c3ccc4ncsc4c3)cncc21` [C58, (4-(benzo[d]thiazol-6-yl)-2,3-dihydro-1H-pyrrolo[2,3-c]pyridin-1-yl)(2-fluorophenyl)methanone], the IC50 worked out at 2640 nM against human CYP11B1 and 75 nM on human CYP11B2.

On to `O=C(c1ccccc1F)N1CCc2c(-c3cc4ccccc4[nH]3)cncc21` [C59, (4-(1H-indol-2-yl)-2,3-dihydro-1H-pyrrolo[2,3-c]pyridin-1-yl)(2-fluorophenyl)methanone], for which the concentration for half-maximal inhibition (IC50) was 2740 nM at human CYP11B1 and 131 nM against human CYP11B2.

For the compound `O=C(c1ccccc1F)N1CCc2c(-c3cc4ccccc4o3)cncc21` [C60, (4-(Benzofuran-2-yl)-2,3-dihydro-1H-pyrrolo[2,3-c]pyridin-1-yl)(2-fluorophenyl)methanone], the results for the IC50 at human CYP11B1 and against human CYP11B2 were > 10000 nM and 152 nM, respectively.

Regarding `O=C(c1ccccc1F)N1CCc2c(-c3cc4ccccc4s3)cncc21` [C61, (4-(Benzo[b]thiophen-2-yl)-2,3-dihydro-1H-pyrrolo[2,3-c]pyridin-1-yl)(2-fluorophenyl)methanone], the IC50 against human CYP11B1 was 1350 nM; against human CYP11B2 it was 216 nM.

As to `O=C(c1ccccc1F)N1CCc2c(-c3ccc4[nH]ccc4c3)cncc21` [C62, (4-(1H-indol-5-yl)-2,3-dihydro-1H-pyrrolo[2,3-c]pyridin-1-yl)(2-fluorophenyl)methanone], the IC50 against human CYP11B1 was 512 nM; against human CYP11B2, 30 nM.

With `O=C(c1ccccc1F)N1CCc2c(-c3ccc4occc4c3)cncc21` [C63, (4-(Benzofuran-5-yl)-2,3-dihydro-1H-pyrrolo[2,3-c]pyridin-1-yl)(2-fluorophenyl)methanone], the IC50 against human CYP11B1 was 1820 nM; at human CYP11B2 it was 113 nM.

For `Cc1ccccc1CC(=O)N1CCc2c(-c3ccc(C#N)cc3)cncc21` [C64, 4-(1-(2-(o-Tolyl)acetyl)-2,3-dihydro-1H-pyrrolo[2,3-c]pyridin-4-yl)benzonitrile], the half-maximal inhibitory concentration (IC50) against human CYP11B1 stood at 258 nM; on human CYP11B2 it was 5.3 nM.

As to `N#Cc1ccc(-c2cncc3c2CCN3C(=O)Cc2ccccc2Br)cc1` [C65, 4-(1-(2-(2-Bromophenyl)acetyl)-2,3-dihydro-1H-pyrrolo[2,3-c]pyridin-4-yl)benzonitrile], the IC50 is 292 nM on human CYP11B1 and 7.6 nM on human CYP11B2.

Regarding `Cc1cccc(CC(=O)N2CCc3c(-c4ccc(C#N)cc4)cncc32)c1` [C66, 4-(1-(2-(m-Tolyl)acetyl)-2,3-dihydro-1H-pyrrolo[2,3-c]pyridin-4-yl)benzonitrile], the 50% inhibitory concentration (IC50) on human CYP11B1 was 92 nM; at human CYP11B2, 0.9 nM.

For `N#Cc1ccc(-c2cncc3c2CCN3C(=O)Cc2ccccc2F)cc1` [C67, 4-(1-(2-(2-Fluorophenyl)acetyl)-2,3-dihydro-1H-pyrrolo[2,3-c]pyridin-4-yl)benzonitrile], the results for the IC50 on human CYP11B1 and at human CYP11B2 were 277 nM and 6.5 nM, respectively.

Turning to `COc1cccc(CC(=O)N2CCc3c(-c4ccc(C#N)cc4)cncc32)c1` [C68, 4-(1-(2-(3-Bethoxyphenyl)acetyl)-2,3-dihydro-1H-pyrrolo[2,3-c]pyridin-4-yl)benzonitrile], the 50% inhibitory concentration (IC50) was 26 nM against human CYP11B1 and 0.7 nM against human CYP11B2.

In the case of `N#Cc1ccc(-c2cncc3c2CCN3C(=O)Cc2ccc(F)cc2)cc1` [C69, 4-(1-(2-(4-Fluorophenyl)acetyl)-2,3-dihydro-1H-pyrrolo[2,3-c]pyridin-4-yl)benzonitrile], the results for the concentration for half-maximal inhibition (IC50) against human CYP11B1 and against human CYP11B2 were 134 nM and 2.4 nM, respectively.

Regarding `N#Cc1ccc(-c2cncc3c2CCN3C(=O)Cc2ccccc2[N+](=O)[O-])cc1` [C70, 4-(1-(2-(2-Nitrophenyl)acetyl)-2,3-dihydro-1H-pyrrolo[2,3-c]pyridin-4-yl)benzonitrile], the concentration for half-maximal inhibition (IC50) on human CYP11B1 is 108 nM; on human CYP11B2 it was 12 nM.

Turning to `N#Cc1ccc(-c2cncc3c2CCN3C(=O)Cc2cccc(Cl)c2)cc1` [C71, 4-(1-(2-(3-Chlorophenyl)acetyl)-2,3-dihydro-1H-pyrrolo[2,3-c]pyridin-4-yl)benzonitrile], the IC50 was 28 nM at human CYP11B1 and 2 nM at human CYP11B2.

On to `Cc1ccc(CC(=O)N2CCc3c(-c4ccc(C#N)cc4)cncc32)cc1` [C72, 4-(1-(2-(p-Tolyl)acetyl)-2,3-dihydro-1H-pyrrolo[2,3-c]pyridin-4-yl)benzonitrile], for which the IC50 was 51 nM at human CYP11B1 and 6.8 nM at human CYP11B2.

Consider `N#Cc1ccc(-c2cncc3c2CCN3C(=O)Cc2ccc(Br)cc2)cc1` [C73, 4-(1-(2-(4-Bromophenyl)acetyl)-2,3-dihydro-1H-pyrrolo[2,3-c]pyridin-4-yl)benzonitrile], for which the IC50 was 124 nM against human CYP11B1 and 11 nM on human CYP11B2.

Regarding `N#Cc1ccc(-c2cncc3c2CCN3C(=O)Cc2cccc(C(F)(F)F)c2)cc1` [C74, 4-(1-(2-(3-(Trifluoromethyl)phenyl)acetyl)-2,3-dihydro-1H-pyrrolo[2,3-c]pyridin-4-yl)benzonitrile], the IC50 against human CYP11B1 turned out to be 53 nM; on human CYP11B2, 9 nM.

On to `N#Cc1ccc(-c2cncc3c2CCN3C(=O)Cc2ccc(C(F)(F)F)cc2)cc1` [C75, 4-(1-(2-(4-(Trifluoromethyl)phenyl)acetyl)-2,3-dihydro-1H-pyrrolo[2,3-c]pyridin-4-yl)benzonitrile], for which the 50% inhibitory concentration (IC50) against human CYP11B1 came to 111 nM; at human CYP11B2, 35 nM.

With `COc1ccc(CC(=O)N2CCc3c(-c4ccc(C#N)cc4)cncc32)cc1` [C76, 4-(1-(2-(4-Methoxyphenyl)acetyl)-2,3-dihydro-1H-pyrrolo[2,3-c]pyridin-4-yl)benzonitrile], the IC50 against human CYP11B1 stood at 62 nM; on human CYP11B2 it was 9 nM.

For `N#Cc1ccc(-c2cncc3c2CCN3C(=O)Cc2ccc(Cl)cc2)cc1` [C77, 4-(1-(2-(4-Chlorophenyl)acetyl)-2,3-dihydro-1H-pyrrolo[2,3-c]pyridin-4-yl)benzonitrile], the IC50 against human CYP11B1 came out at 376 nM; on human CYP11B2, 8 nM.

With `COc1ccc(C(=O)N2CCc3c(-c4cc5cc(C#N)ccc5o4)cncc32)cc1` [C79, 2-(1-(4-Methoxybenzoyl)-2,3-dihydro-1H-pyrrolo[2,3-c]pyridin-4-yl)benzofuran-5-carbo nitrile], the IC50 against human CYP11B1 turned out to be 2950 nM; against human CYP11B2 it was 46 nM.

For the compound `O=C(C1CN(Cc2cccc(F)c2)C1)N1CCc2c(-c3cc4cc(Cl)ccc4[nH]3)cncc21` [C80, (4-(5-Chloro-1H-indol-2-yl)-2,3-dihydro-1H-pyrrolo[2,3-c]pyridin-1-yl)(1-(3-fluorobenzyl)azetidin-3-yl)methanone], the 50% inhibitory concentration (IC50) at human CYP11B1 stood at 476 nM; against human CYP11B2, 22 nM.

Turning to `N#Cc1ccc2[nH]c(-c3cncc4c3CCN4C(=O)C3CN(Cc4cccc(F)c4)C3)cc2c1` [C81, 2-(1-(1-(3-Fluorobenzyl)azetidine-3-carbonyl)-2,3-dihydro-1H-pyrrolo[2,3-c]pyridin-4-yl)-1H-indole-5-carbonitrile], the concentration for half-maximal inhibition (IC50) against human CYP11B1 worked out at 438 nM; on human CYP11B2, 15 nM.
